From US20240116985A1, “STAPLED PEPTIDES AND METHODS THEREOF” (priority 2020, published 2024) come the findings set out here.

≈ marks a conversion by molar mass, not a printed value. Read-outs that look alike come from different tables or passages of the source.

One series is described as follows: Solubility in PBS. The class given is physicochemical. The gist of the method:
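PBS sample ultracentrifuged; supernatant run on HPLC vs. 50 μM peptide in DMSO standard. Solubility = (PBS peak area / DMSO peak area) × 50 uM.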

Series [1] has as its target T1, full-length beta-Catenin (Uniprot ID P35222) (Homo sapiens, UniProt P35222).
T1 construct: 10 nM full-length beta-Catenin (Uniprot ID P35222)
T1 sequence (P35222 1-781): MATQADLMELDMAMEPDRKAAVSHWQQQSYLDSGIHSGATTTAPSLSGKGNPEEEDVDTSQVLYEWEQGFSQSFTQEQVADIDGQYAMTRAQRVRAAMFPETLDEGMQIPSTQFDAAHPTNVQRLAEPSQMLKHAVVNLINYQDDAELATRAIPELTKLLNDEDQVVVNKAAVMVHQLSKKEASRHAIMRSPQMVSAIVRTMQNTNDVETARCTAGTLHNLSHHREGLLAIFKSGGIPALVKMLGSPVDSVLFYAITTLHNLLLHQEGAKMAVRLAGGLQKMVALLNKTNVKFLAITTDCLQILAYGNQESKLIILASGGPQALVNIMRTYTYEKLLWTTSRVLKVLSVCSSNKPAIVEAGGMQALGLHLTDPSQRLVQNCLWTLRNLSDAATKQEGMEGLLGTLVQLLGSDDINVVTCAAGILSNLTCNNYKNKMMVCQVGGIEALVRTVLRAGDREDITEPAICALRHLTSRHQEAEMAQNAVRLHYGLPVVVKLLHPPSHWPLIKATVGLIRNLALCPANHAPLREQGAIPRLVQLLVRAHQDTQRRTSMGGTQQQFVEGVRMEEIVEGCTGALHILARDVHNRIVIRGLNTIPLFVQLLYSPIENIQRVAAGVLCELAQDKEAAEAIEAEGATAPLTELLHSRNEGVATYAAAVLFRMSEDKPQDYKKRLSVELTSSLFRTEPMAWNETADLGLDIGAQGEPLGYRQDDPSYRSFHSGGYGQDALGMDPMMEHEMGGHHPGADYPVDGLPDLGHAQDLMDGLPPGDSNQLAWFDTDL
The series can be described thus: Fluorescence polarization IC50 (beta-catenin / 5FAM-TCF4 10-53 competition). The class given is binding. Conditions: fluorescence polarization. (In fluorescence polarisation assays a small probe gives low polarisation when free and higher when bound to something large.)

The mark [2] stands for this setting: beta-catenin, read-out: FP EC50.

One may read the Solubility as how much of the substance goes into solution per volume. Low readings indicate little dissolved substance, high ones much dissolved substance. With `CC(=O)N1CCC[C@]12CC=CCCCC1(CCCC=CCCCOC(=O)N3CC[C@@](C(=O)N[C@@H](Cc4ccsc4)C(=O)N[C@@H](Cc4csc5ccccc45)C(=O)N[C@@H](CCC(N)=O)C(N)=O)(C3)NC(=O)[C@H](CC(N)=O)NC(=O)[C@H](Cc3ccccc3)NC(=O)[C@H](C)NC(=O)[C@H](C)NC(=O)[C@H](CC(=O)O)NC(=O)[C@H](CCC(N)=O)NC1=O)NC(=O)[C@H](CC(C)(C)C)NC(=O)[C@H](CC(=O)O)NC2=O` (stereo partly drawn) [I-1210, Ac-PL3-Asp-Npg-B5-Gln-Asp-Ala-Ala-Phe-Asn-PyrS2-3Thi-BztA-Gln-NH2], the “Solubility” value in the series “Solubility in PBS” was 50 µM (≈ 96.6 µg/mL). The IC50 in series [1] (read-out: beta-Catenin FP IC50) is 0.056 µM.
For `CC(=O)N1CCC[C@]12CC=CCCCC1(CCCC=CCCCOC(=O)N3CC[C@@](C(=O)N[C@@H](Cc4ccsc4)C(=O)N[C@@H](Cc4csc5ccccc45)C(=O)N[C@@H](CCC(N)=O)C(N)=O)(C3)NC(=O)[C@H](CC(C)C)NC(=O)[C@H](Cc3ccccc3)NC(=O)[C@H](C)NC(=O)[C@H](C)NC(=O)[C@H](CC(=O)O)NC(=O)[C@H](CCC(N)=O)NC1=O)NC(=O)[C@H](CC(C)(C)C)NC(=O)[C@H](CC(=O)O)NC2=O` (stereo partly drawn) [I-1211, Ac-PL3-Asp-Npg-B5-Gln-Asp-Ala-Ala-Phe-Leu-PyrS2-3Thi-BztA-Gln-NH2], the concentration in solution in “Solubility in PBS” (Solubility (uM)) (Solubility) was 11 µM (≈ 21.2 µg/mL). Besides, the IC50 in series [1] (read-out: beta-Catenin FP IC50) was 0.115 µM.
For the compound `CC(=O)N1CCC[C@]12CC=CCCCC1(CCCC=CCCCOC(=O)N3CC[C@@](C(=O)N[C@@H](Cc4ccsc4)C(=O)N[C@@H](Cc4csc5ccccc45)C(=O)N[C@@H](CCC(N)=O)C(N)=O)(C3)NC(=O)[C@H](CC(N)=O)NC(=O)[C@H](Cc3ccccc3)NC(=O)[C@H](C)NC(=O)[C@H](C)NC(=O)[C@H](CC(=O)O)NC(=O)[C@H](CCO)NC1=O)NC(=O)[C@H](CC(C)(C)C)NC(=O)[C@H](CC(=O)O)NC2=O` (stereo partly drawn) [I-1214, Ac-PL3-Asp-Npg-B5-Hse-Asp-Ala-Ala-Phe-Asn-PyrS2-3Thi-BztA-Gln-NH2], the “Solubility” value in “Solubility in PBS” amounted to 50 µM (≈ 95.2 µg/mL). In addition, the IC50 in series [1] (read-out: beta-Catenin FP IC50) came to 0.116 µM.
The matching figures for `CC(=O)N1CCC[C@]12CC=CCCCC1(CCCC=CCCCOC(=O)N3CC[C@@](C(=O)N[C@@H](Cc4ccsc4)C(=O)N[C@@H](Cc4csc5ccccc45)C(=O)N[C@@H](CCC(N)=O)C(N)=O)(C3)NC(=O)[C@H](CC(C)C)NC(=O)[C@H](Cc3ccccc3)NC(=O)[C@H](C)NC(=O)[C@H](C)NC(=O)[C@H](CC(=O)O)NC(=O)[C@H](CCO)NC1=O)NC(=O)[C@H](CC(C)(C)C)NC(=O)[C@H](CC(=O)O)NC2=O` (stereo partly drawn) [I-1215, Ac-PL3-Asp-Npg-B5-Hse-Asp-Ala-Ala-Phe-Leu-PyrS2-3Thi-BztA-Gln-NH2]: 10 µM (≈ 19 µg/mL) and 0.216 µM.
Consider `CCCCCCCC(=O)N1CCC[C@]12CC=CCCCC1(CCCC=CCCCOC(=O)N3CC[C@@](C(=O)N[C@@H](Cc4ccccc4Cl)C(=O)N[C@@H](Cc4csc5ccccc45)C(=O)N[C@@H](C(N)=O)[C@H](C)O)(C3)NC(=O)[C@H](CC(N)=O)NC(=O)[C@H](Cc3ccccc3)NC(=O)[C@H](C)NC(=O)[C@H](C)NC(=O)[C@H](CC(=O)O)NC(=O)[C@H](CC(=O)O)NC1=O)NC(=O)[C@H](CC(C)(C)C)NC(=O)[C@H](CC(=O)O)NC2=O` (stereo partly drawn) [I-1252, Oct-PL3-Asp-Npg-B5-Asp-Asp-Ala-Ala-Phe-Asn-PyrS2-2C1F-BztA-dThr-NH2], for which the concentration in solution in the series “Solubility in PBS” (Solubility (uM)) (Solubility) came to 44 µM (≈ 88.2 µg/mL). In addition, in series [1] (read-out: beta-Catenin FP IC50), the IC50 was determined as 0.546 µM.
Taken in the same sequence, the figures for `CC(=O)N1CCC[C@]12CC=CCCCC1(CCCC=CCCCCCCCC[C@@](C)(C(=O)N[C@@H](Cc3ccccc3Cl)C(=O)N[C@@H](Cc3csc4ccccc34)C(=O)N[C@H](C(N)=O)[C@@H](C)O)NC(=O)[C@H]([C@@H](C)O)NC(=O)[C@H](Cc3ccccc3)NC(=O)[C@H](C)NC(=O)[C@H](C)NC(=O)[C@H](CC(=O)O)NC(=O)[C@H](CC(=O)O)NC1=O)NC(=O)[C@H](CC(C)(C)C)NC(=O)[C@H](CC(=O)O)NC2=O` (stereo partly drawn) [I-1262, Ac-PL3-Asp-Npg-B5-Asp-Asp-Ala-Ala-Phe-Thr-S10-2C1F-BztA-Thr-NH2] were 49 µM (≈ 92.7 µg/mL) and 1.12 µM.
For `CC(=O)N1CCC[C@]12CC=CCCCC1(CCCC=CCCCOC(=O)N3CC[C@@](C(=O)N[C@@H](Cc4ccc5ccccc5c4)C(=O)N[C@@H](Cc4csc5ccccc45)C(=O)N[C@@H](CO)C(N)=O)(C3)NC(=O)[C@H]([C@@H](C)O)NC(=O)[C@H](Cc3ccccc3)NC(=O)[C@H](C)NC(=O)[C@H](C)NC(=O)[C@H]([C@@H](C)O)NC(=O)[C@H](CC(=O)O)NC1=O)NC(=O)[C@H](CC(C)(C)C)NC(=O)[C@H](CC(=O)O)NC2=O` (stereo partly drawn) [I-1270, Ac-PL3-Asp-Npg-B5-Asp-Thr-Ala-Ala-Phe-Thr-PyrS2-2NapA-BztA-Ser-NH2], the “Solubility” value in the series “Solubility in PBS” turned out to be 10 µM (≈ 18.9 µg/mL). Besides, the IC50 in series [1] (read-out: beta-Catenin FP IC50) came out at 3.7 µM.
The matching figures for `CC(=O)N1CCC[C@]12CC=CCCCC1(CCCC=CCCCOC(=O)N3CC[C@@](C(=O)N[C@@H](Cc4cccc(C(F)(F)F)c4)C(=O)N[C@@H](Cc4csc5ccccc45)C(=O)N[C@@H](CO)C(N)=O)(C3)NC(=O)[C@H]([C@@H](C)O)NC(=O)[C@H](Cc3ccccc3)NC(=O)[C@H](C)NC(=O)[C@H](C)NC(=O)[C@H]([C@@H](C)O)NC(=O)[C@H](CC(=O)O)NC1=O)NC(=O)[C@H](CC(C)(C)C)NC(=O)[C@H](CC(=O)O)NC2=O` (stereo partly drawn) [I-1271, Ac-PL3-Asp-Npg-B5-Asp-Thr-Ala-Ala-Phe-Thr-PyrS2-3F3MeF-BztA-Ser-NH2]: 10 µM (≈ 19.1 µg/mL) and 0.682 µM.
In “Solubility in PBS” (Solubility (uM)), `CC(=O)N1CCC[C@]12CC=CCCCC1(CCCC=CCCCOC(=O)N3CC[C@@](C(=O)N[C@@H](Cc4ccccc4)C(=O)N[C@@H](Cc4cccc5ccccc45)C(=O)N[C@@H](CO)C(N)=O)(C3)NC(=O)[C@H]([C@@H](C)O)NC(=O)[C@H](Cc3ccccc3)NC(=O)[C@H](C)NC(=O)[C@H](C)NC(=O)[C@H]([C@@H](C)O)NC(=O)[C@H](CC(=O)O)NC1=O)NC(=O)[C@H](CC(C)(C)C)NC(=O)[C@H](CC(=O)O)NC2=O` (stereo partly drawn) [I-1272, Ac-PL3-Asp-Npg-B5-Asp-Thr-Ala-Ala-Phe-Thr-PyrS2-Phe-1NapA-Ser-NH2] displayed a Solubility of 21 µM (≈ 38.6 µg/mL). In addition, in series [1] (read-out: beta-Catenin FP IC50), the IC50 amounted to 0.331 µM.
`CC(=O)N1CCC[C@]12CC=CCCCC1(CCCC=CCCCOC(=O)N3CC[C@@](C(=O)N[C@@H](Cc4ccccc4)C(=O)N[C@@H](Cc4csc5ccccc45)C(=O)N[C@@H](CCC(N)=O)C(N)=O)(C3)NC(=O)[C@H](CC(C)C)NC(=O)[C@H](Cc3ccccc3)NC(=O)[C@H](C)NC(=O)[C@H](CCCCNC(C)C)NC(=O)[C@H]([C@@H](C)O)NC(=O)[C@H](CC(=O)O)NC1=O)NC(=O)[C@H](CC(C)(C)C)NC(=O)[C@H](CC(N)=O)NC2=O` (stereo partly drawn) [I-1288, Ac-PL3-Asn-Npg-B5-Asp-Thr-iPrLys-Ala-Phe-Leu-PyrS2-Phe-BztA-Gln-NH2]: the “Solubility” value in the series “Solubility in PBS” is 10 µM (≈ 20 µg/mL). Besides, the IC50 in series [1] (setting [2]) and in series [1] (read-out: beta-Catenin FP IC50) was 1.16 µM in each case.
On to `CC(=O)N1CCC[C@]12CC=CCCCC1(CCCC=CCCCOC(=O)N3CC[C@@](C(=O)N[C@@H](Cc4ccccc4)C(=O)N[C@@H](Cc4csc5ccccc45)C(=O)N[C@@H](CCC(N)=O)C(N)=O)(C3)NC(=O)[C@H](CC(C)C)NC(=O)[C@H](Cc3ccccc3)NC(=O)[C@H](C)NC(=O)[C@H](C)NC(=O)[C@H]([C@@H](C)O)NC(=O)[C@H](CC(N)=O)NC1=O)NC(=O)[C@H](C)NC(=O)[C@H](CC(=O)O)NC2=O` (stereo partly drawn) [I-1296, Ac-PL3-Asp-Ala-B5-Asn-Thr-Ala-Ala-Phe-Leu-PyrS2-Phe-BztA-Gln-NH2], for which the “Solubility” value in the series “Solubility in PBS” was 10 µM (≈ 18.4 µg/mL). Further, the IC50 in series [1] (setting [2]) and in series [1] (read-out: beta-Catenin FP IC50) was 3.78 µM each time.
As to `CC(=O)N1CCC[C@]12CC=CCCCC1(CCCC=CCCCOC(=O)N3CC[C@@](C(=O)N[C@@H](Cc4ccsc4)C(=O)N[C@@H](Cc4csc5ccccc45)C(=O)N[C@H](CO)[C@@H](C)O)(C3)NC(=O)[C@H]([C@@H](C)O)NC(=O)[C@H](Cc3ccccc3)NC(=O)[C@H](C)NC(=O)[C@H](C)NC(=O)[C@H](CC(=O)O)NC(=O)[C@H](CC(=O)O)NC1=O)NC(=O)[C@H](CC(C)(C)C)NC(=O)[C@H](CC(=O)O)NC2=O` (stereo partly drawn) [I-1306, Ac-PL3-Asp-Npg-B5-Asp-Asp-Ala-Ala-Phe-Thr-PyrS2-3Thi-BztA-Thro1], the “Solubility” value in “Solubility in PBS” was 50 µM (≈ 93.3 µg/mL). Moreover, in series [1] (read-out: beta-Catenin FP IC50), the IC50 was 0.006 µM.
`CC(=O)N1CCC[C@]12CC=CCCCC1(CCCC=CCCCOC(=O)N3CC[C@@](C(=O)N[C@@H](Cc4ccccc4Cl)C(=O)N[C@@H](Cc4csc5ccccc45)C(=O)N[C@H](CO)[C@@H](C)O)(C3)NC(=O)[C@H](CC(C)C)NC(=O)[C@H](Cc3ccccc3)NC(=O)[C@H](C)NC(=O)[C@H](C)NC(=O)[C@H](CC(=O)O)NC(=O)[C@H](CC(=O)O)NC1=O)NC(=O)[C@H](CC1CCCCC1)NC(=O)[C@H](CC(=O)O)NC2=O` (stereo partly drawn) [I-1307, Ac-PL3-Asp-Cha-B5-Asp-Asp-Ala-Ala-Phe-Leu-PyrS2-2C1F-BztA-Thro1]: the Solubility in the series “Solubility in PBS” (Solubility (uM)) turned out to be 20 µM (≈ 38.6 µg/mL). The IC50 in series [1] (read-out: beta-Catenin FP IC50) came out at 0.021 µM.
